How the values were obtained:
Format in all cases: binding
HLA A*3201 = HLA A*3201 (Homo sapiens, UniProt P04439, A270S/D101S/D185E/E176V/E277Q/F133L/G103R/G107R/G231S/H175R/I121M/I218V/I322F/K168Q/L105A/L300P/L318F/M331R/P208A/P217A/Q94H/R106L/R138Q/S129P/T104I/T323A/T345S/V100E/V321M/V358M); experiment: biochemical
HLA B*5101 = HLA B*5101 (Homo sapiens, UniProt P01889, A329T/A93T/A95T/C349S/D138N/D201E/D98Y/E187L/E204Q/E69T/G107R/I218V/K202T/L105A/L119W/N104I/Q94N/R106L/R155S/R180L/S101N/S121T/S35A/S48A/V306I/V36M/Y195H/Y91F)
H-2 K^d = H-2 K^d (Mus musculus, UniProt P01902)
HLA A*6802 = HLA A*6802 (Homo sapiens, UniProt P04439, A269V/D140Y/D185E/E176V/E277Q/E87N/F33Y/G231S/I121R/I166T/I218V/L180W/L300P/L318F/N151K/P208A/P217A/Q86R/R138H/R169H/S129P/T345S/V36M)
HLA A*3001 = HLA A*3001 (Homo sapiens, UniProt P04439, D140H/D185E/E176W/F33S/G80R/H175R/K168Q/R138E/R41S); experiment: biochemical
HLA B*3501 = HLA B*3501 (Homo sapiens, UniProt P01889, A329T/A93T/A95T/C349S/D201E/D98Y/E176V/E187L/E204Q/E69T/I218V/K202T/L119I/Q94N/R155S/R180L/S121R/S35A/S48A/T118I/V127L/V306I/V36M/Y140S/Y91F)
HLA B*1503 = HLA B*1503 (Homo sapiens, UniProt P01889, A329T/A93T/A95T/C349S/D201E/D98Y/E187L/E204Q/K202T/N87E/Q94N/R155S/R180L/S121R/S35A/V306I/V36M/Y140S/Y91S); experiment: biochemical
HLA B*0801 = HLA B*0801 (Homo sapiens, UniProt P01889, A93T/A95T/D138N/E176V/E187T/K202T/Q94N/R180D/S35A/V36M/Y33D/Y91F); experiment: biochemical
H-2 D^b = H-2 D^b (Mus musculus, UniProt P01899)
HLA B*5801 = HLA B*5801 (Homo sapiens, UniProt P01889, A329T/C349S/D201E/D98Y/E176V/E187L/E204Q/E69T/G107R/I218V/I90N/K202T/L105A/L119I/N104I/N87E/Q89R/Q94S/R106L/R155S/R180L/R86G/S101N/S121R/S35A/S48A/T118I/V127L/V306I/V36M/Y140S/Y91M)
HLA B*5401 = HLA B*5401 (Homo sapiens, UniProt P01889, A329T/C349S/D138N/D201E/E176V/E187T/E204Q/E69G/I76V/K202T/L119W/R155S/R180L/S121T/S35A/S48A/V127L/V306I/V36M/Y140L)
H-2 K^k = H-2 K^k (Mus musculus, UniProt P04223)
HLA B*1501 = HLA B*1501 (Homo sapiens, UniProt P01889, A329T/A93T/A95T/C349S/D201E/D98Y/E187L/E204Q/E69M/E70A/K202T/N87E/Q94N/R155S/R180W/S121R/S35A/S48A/V306I/V36M/Y140S/Y91S); experiment: biochemical
HLA B*5802 = HLA B*5802 (Homo sapiens, UniProt P01889, A329T/C349S/D201E/D98Y/E176V/E187L/E204Q/E69T/G107R/I218V/I90N/K202T/L105A/N104I/N87E/Q89R/Q94S/R106L/R155S/R180L/R86G/S101N/S121W/S35A/S48A/V127L/V306I/V36M/Y140S/Y91M)
HLA B*5301 = HLA B*5301 (Homo sapiens, UniProt P01889, A329T/A93T/A95T/C349S/D201E/D98Y/E176V/E187L/E204Q/E69T/G107R/I218V/K202T/L105A/L119I/N104I/Q94N/R106L/R155S/R180L/S101N/S121R/S35A/S48A/T118I/V127L/V306I/V36M/Y140S/Y91F)
H-2 D^d = H-2 D^d (Mus musculus, UniProt P01900)
Chain of H-2 D^d (P01900 whole entry, looked up): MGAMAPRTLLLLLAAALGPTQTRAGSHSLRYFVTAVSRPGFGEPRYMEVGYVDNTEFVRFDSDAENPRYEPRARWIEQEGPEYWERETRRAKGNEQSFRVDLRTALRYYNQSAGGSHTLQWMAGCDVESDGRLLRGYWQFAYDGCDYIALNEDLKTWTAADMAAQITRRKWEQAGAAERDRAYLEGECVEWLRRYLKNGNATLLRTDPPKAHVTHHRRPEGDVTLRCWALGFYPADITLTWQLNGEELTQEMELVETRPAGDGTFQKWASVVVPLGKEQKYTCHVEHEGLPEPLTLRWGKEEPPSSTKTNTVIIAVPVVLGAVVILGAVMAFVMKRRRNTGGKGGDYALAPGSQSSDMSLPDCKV

Chain of H-2 K^k (P01887 21-119): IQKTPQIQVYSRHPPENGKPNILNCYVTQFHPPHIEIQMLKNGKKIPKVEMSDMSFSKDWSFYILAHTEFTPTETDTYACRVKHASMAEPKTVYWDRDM
Chain of H-2 K^k (P04223 22-369): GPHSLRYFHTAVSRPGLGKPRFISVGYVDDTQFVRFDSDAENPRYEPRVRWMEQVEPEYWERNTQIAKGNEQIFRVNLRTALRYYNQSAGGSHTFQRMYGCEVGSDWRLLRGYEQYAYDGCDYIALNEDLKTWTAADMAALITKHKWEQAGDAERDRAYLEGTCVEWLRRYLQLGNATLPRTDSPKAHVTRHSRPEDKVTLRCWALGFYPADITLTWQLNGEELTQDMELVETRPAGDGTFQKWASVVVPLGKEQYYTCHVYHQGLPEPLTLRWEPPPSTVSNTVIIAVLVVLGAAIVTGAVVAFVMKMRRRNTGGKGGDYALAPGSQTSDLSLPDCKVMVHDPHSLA
Chain of H-2 K^d (P01887 21-119): as the sequence (P01887 21-119) above
Chain of H-2 K^d (P01902 22-368): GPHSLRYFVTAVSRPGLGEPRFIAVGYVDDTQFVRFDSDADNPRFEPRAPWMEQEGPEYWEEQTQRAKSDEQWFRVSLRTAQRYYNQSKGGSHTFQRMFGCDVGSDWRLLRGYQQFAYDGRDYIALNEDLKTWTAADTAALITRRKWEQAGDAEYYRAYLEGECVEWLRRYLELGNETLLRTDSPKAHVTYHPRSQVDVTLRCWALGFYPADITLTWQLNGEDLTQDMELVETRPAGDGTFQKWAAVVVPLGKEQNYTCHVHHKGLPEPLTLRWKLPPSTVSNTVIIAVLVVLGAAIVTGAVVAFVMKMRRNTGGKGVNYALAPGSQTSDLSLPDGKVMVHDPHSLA
Chain of H-2 D^b (P01887 21-119): as the sequence (P01887 21-119) above
Chain of H-2 D^b (P01899 25-362): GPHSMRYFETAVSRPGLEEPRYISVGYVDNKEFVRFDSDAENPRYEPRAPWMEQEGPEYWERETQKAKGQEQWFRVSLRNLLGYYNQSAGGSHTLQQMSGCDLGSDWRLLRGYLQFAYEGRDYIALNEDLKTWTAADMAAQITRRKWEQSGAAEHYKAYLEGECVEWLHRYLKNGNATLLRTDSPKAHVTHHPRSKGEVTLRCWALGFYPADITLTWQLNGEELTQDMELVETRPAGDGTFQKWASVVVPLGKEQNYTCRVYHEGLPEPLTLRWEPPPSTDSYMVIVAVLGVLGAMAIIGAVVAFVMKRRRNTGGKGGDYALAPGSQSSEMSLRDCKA

Sequence	Normalized average relative binding affinity(ARB) (HLA A*3201)	Normalized average relative binding affinity(ARB) (HLA B*5101)	Normalized average relative binding affinity(ARB) (H-2 K^d)	Normalized average relative binding affinity(ARB) (HLA A*6802)	Normalized average relative binding affinity(ARB) (HLA A*3001)	Normalized average relative binding affinity(ARB) (HLA B*3501)	Normalized average relative binding affinity(ARB) (HLA B*1503)	Normalized average relative binding affinity(ARB) (HLA B*0801)	Normalized average relative binding affinity(ARB) (H-2 D^b)	Normalized average relative binding affinity(ARB) (HLA B*5801)	Normalized average relative binding affinity(ARB) (HLA B*5401)	Normalized average relative binding affinity(ARB) (H-2 K^k)	Normalized average relative binding affinity(ARB) (HLA B*1501)	Normalized average relative binding affinity(ARB) (HLA B*5802)	Normalized average relative binding affinity(ARB) (HLA B*5301)	Normalized average relative binding affinity(ARB) (H-2 D^d)
XXXXXXXCX [3064.0142]	0.11	0.38	0.28	0.19	0.11	0.087	0.11	0.22	0.12	0.18	0.74	0.37	0.18	0.21	0.078	0.78
XXXXXXXDX [3064.0143]	0.10	0.17	0.62	0.093	0.052	0.073	0.14	0.17	0.090	0.063	0.038	0.26	0.049	0.087	0.082	0.44
XXXXXXXEX [3064.0144]	0.27	0.34	0.55	0.14	0.12	0.098	0.11	0.24	0.33	0.18	0.13	0.46	0.23	0.30	0.10	0.65
XXXXXXXFX [3064.0145]	0.24	1.0	0.66	0.31	0.76	0.13	0.21	0.32	0.79	1.0	0.080	1.0	0.32	0.33	0.46	0.75
XXXXXXXGX [3064.0146]	0.54	0.20	0.63	0.31	0.18	0.098	0.18	0.099	0.043	0.21	0.083	0.32	0.15	0.87	0.094	0.62
XXXXXXXHX [3064.0147]	0.49	0.33	0.096	0.046	0.44	0.15	0.84	0.15	0.073	0.18	0.043	0.0052	1.0	0.26	0.74	0.11
